Reference: US8143282B2, “Heterocyclic compounds” (S*BIO Pte Ltd., priority 2005, dated 2012)

Columns and labels:
[1] = molecular target: T1, HDAC1 enzyme (Homo sapiens, UniProt Q13547); assay: In vitro HDAC assay for determination of IC50 values (BIOMOL fluorescent-based HDAC activity assay); type: biochemical
T1 construct: Amplification of human HDAC1 coding region from this cDNA library was cloned separately into the baculovirus expression pDEST20 vector; made in house; host or cells: SF9 insect cells, pDEST20-HDAC1 baculovirus
Procedure: Human cDNA library was prepared using cultured SW620 cells. Amplification of human HDAC1 coding region from this cDNA library was cloned separately into the baculovirus expression pDEST20 vector (GATEWAY Cloning Technology, Invitrogen Pte Ltd). The pDEST20-HDAC1 construct was confirmed by DNA sequencing. Recombinant baculovirus was prepared using the Bac-To-Bac method following the manufacturer's instruction (Invitrogen Pte Ltd).
Expression of GST-HDAC1 was done by infecting SF9 cells (Invitrogen Pte Ltd) with pDEST20-HDAC1 baculovirus at MOI=1 for 48 h. Soluble cell lysate was incubated with pre-equilibrated Glutathione Sepharose 4B beads (Amersham) at 4° C. for 2 h. The beads were washed with PBS buffer for 3 times. The GST-HDAC1 protein was eluted by elution buffer containing 50 mM Tris, pH8.0, 150 mM NaCl, 1% Triton X-100 and 10 mM or 20 mM reduced Glutathione. The purified GST-HDAC1 protein was dialyzed with HDAC storage buffer containing 10 mM Tris, pH7.5, 100 mM NaCl and 3 mM MgCl2. 20% Glycerol was added to purified GST-HDAC1 protein before storage at −80° C.
The assay has been carried out in 96 well format and the BIOMOL fluorescent-based HDAC activity assay has been applied. […] Flur de lys Developer was added and the reaction was incubated for 10 min. Briefly, deacetylation of the substrate sensitizes it to the developer, which then generates a fluorophore. The fluorophore is excited with 360 nm light and the emitted light (460 nm) is detected on a fluorometric plate reader (Tecan Ultra Microplate detection system, Tecan Group Ltd.).
The analytical software, Prism 4.0 (GraphPad Software Inc) has been used to generate IC50 from a series of data.

[2] = tested on: Colo205 cells; assay: Cell-based proliferation assay for GI50 (CyQUANT), Colo205; conditions: Homo sapiens, COLO 205, 96 h treatment, read-out: Cellular or Growth Inhibition Activity in Colo205 cells, GI50
Procedure: Human colon cancer cell lines (Colo205, HCT116), Ovarian cancer cell line (A2780), Hepatoma cell line (HEP3B), Prostate cancer cell line (PC3) were obtained from ATCC or ECACC. Colo205 cells were cultivated in RPMI 1640 containing 2 mM L-Glutamine, 5% FBS, 1.0 mM Na Pyruvate, 1 U/ml of penicillin and 1 μg of streptomycin. HCT116 cells were cultivated in McCoy's containing RPMI 1640 containing 2 mM L-Glutamine, 5% FBS, 1 U/ml of penicillin and 1 μg of streptomycin. A2780 cells were cultivated in RPMI 1640 containing 2 mM L-Glutamine, 5% FBS, 1 U/ml of penicillin and 1 μg of streptomycin. HEP3B cells were cultivated in EMEM containing 2 mM L-glutamine, 5% FBS, 1% non essential amino acid, 1 mM Na Pyruvate, 1 U/ml of penicillin and 1 μg of streptomycin. PC3 cells were cultivated in F12K, 2 mM L-glutamine, 5% FBS, 1 U/ml of penicillin and 1 μg of streptomycin. PC3, Colo205, and HCT116 cells were seeded in 96-wells plate at 1000, 5000 and 6000 cells per well respectively. A2780 and HEP3B cells were seeded in 96-wells plate at 4000 cells per well respectively. The plates were incubated at 37° C., 5% CO2, for 24 h. Cells were treated with compounds at various concentrations for 96 h. Cell growth was then monitored using CyQUANT® cell proliferation assay (Invitrogen Pte Ltd). Dose response curves were plotted to determine GI50 values for the compounds using XL-fit (ID Business Solution, Emeryville, Calif.). GI50 is defined as the concentration of compound required for 50% inhibition of cell growth.

T1 sequence (Q13547 whole entry): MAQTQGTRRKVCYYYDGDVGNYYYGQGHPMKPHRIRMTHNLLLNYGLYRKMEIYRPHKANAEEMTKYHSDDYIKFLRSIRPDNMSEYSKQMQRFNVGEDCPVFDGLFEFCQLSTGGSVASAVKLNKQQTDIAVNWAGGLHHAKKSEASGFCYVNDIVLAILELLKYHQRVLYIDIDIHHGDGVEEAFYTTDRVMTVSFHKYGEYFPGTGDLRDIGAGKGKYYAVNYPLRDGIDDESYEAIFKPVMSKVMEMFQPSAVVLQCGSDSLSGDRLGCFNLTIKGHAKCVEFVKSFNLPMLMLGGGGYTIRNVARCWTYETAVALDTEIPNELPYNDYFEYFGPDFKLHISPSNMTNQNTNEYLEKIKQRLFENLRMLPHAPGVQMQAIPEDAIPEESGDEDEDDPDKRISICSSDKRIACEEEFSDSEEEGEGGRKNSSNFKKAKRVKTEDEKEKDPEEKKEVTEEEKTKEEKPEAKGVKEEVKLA

| Compound | IC50 [1] | GI50 [2] |
| --- | --- | --- |
| CCCCc1nc2cc(/C=C/C(=O)NO)ccc2n1CCCNC(C)C [Compound 47, 3-[2-Butyl-1-(3-isopropylamino-propyl)-1H-benzoimidazol-5-yl]-N-hydroxy-acrylamide] | 0.21 µM | 3.6 µM |
| CC/C=C\CCc1nc2cc(/C=C/C(=O)NO)ccc2n1CCN(C)C [Compound 54, 3-[1-(2-Dimethylamino-ethyl)-2-hex-3-enyl-1H-benzoimidazol-5-yl]-N-hydroxy-acrylamide] | 0.048 µM | 0.46 µM |
| C=CCCc1nc2cc(/C=C/C(=O)NO)ccc2n1CC(C)(C)CN(C)C [Compound 10, 3-[2-But-3-enyl-1-(3-dimethylamino-2,2-dimethyl-propyl)-1H-benzoimidazol-5-yl]-N-hydroxy-acrylamide] | 0.14 µM | 1.77 µM |
| CCCCc1nc2cc(/C=C/C(=O)NO)ccc2n1CCN(C(C)C)C(C)C [Compound 43, 3-[2-Butyl-1-(2-diisopropylamimo-ethyl)-1H-benzoimidazol-5-yl]-N-hydroxy-acrylamide] | 0.33 µM | 1.86 µM |
| CCC(CC)CN(C)CCn1cnc2cc(/C=C/C(=O)NO)ccc21 [Compound 123, 3-(1-{2-[(2-Ethyl-butyl)-methyl-amino]-ethyl}-1H-benzoimidazol-5-yl)-N-hydroxy-acrylamide] | 0.027 µM | 0.15 µM |
| CCCCN1CCCC(n2cnc3cc(/C=C/C(=O)NO)ccc32)C1 (stereo not shown) [Compound 102, (E)-3-(1-(1-butylpiperidin-3-yl)-1H-benzo[d]imidazol-5-yl)-N-hydroxyacrylamide] | 0.54 µM | 2.08 µM |
| CCN(CC)CCn1c(CCNC(=O)CC(C)(C)C)nc2cc(/C=C/C(=O)NO)ccc21 [Compound 59, N-{2-[1-(2-Diethylamino-ethyl)-5-(2-hydroxycarbamoyl-vinyl)-1H-benzoimidazol-2-yl]-ethyl}-3,3-dimethyl-butyramide] | 0.077 µM | 2.28 µM |
| CCCCCc1nc2cc(/C=C/C(=O)NO)ccc2n1CCN(C)CC [Compound 79, 3-{1-[2-(Ethyl-methyl-amino)-ethyl]-2-pentyl-1H-benzoimidazol-5-yl}-N-hydroxy-acrylamide] | 0.04 µM | 0.45 µM |
| CCN(CC)CCn1c(CCNC(=O)C(C)(C)C)nc2cc(/C=C/C(=O)NO)ccc21 [Compound 60, 3-{1-(2-Diethylamino-ethyl)-2-[2-(2,2-dimethyl-propionylamino)-ethyl]-1H-benzoimidazol-5-yl}-N-hydroxy-acrylamide] | 0.1 µM | 2.48 µM |
| CCCN(CC)CCn1cnc2cc(/C=C/C(=O)NO)ccc21 [Compound 112, 3-{1-[2-(Ethyl-propyl-amino)-ethyl]-1H-benzoimidazol-5-yl}-N-hydroxy-acrylamide] | 0.12 µM | 0.88 µM |
| O=C(/C=C/c1ccc2c(c1)ncn2C1CCCN(CCCc2ccccc2)C1)NO (stereo not shown) [Compound 97, (E)-N-hydroxy-3-(1-(1-(3-phenylpropyl)piperidin-3-yl)-1H-benzo[d]imidazol-5-yl)acrylamide] | 0.1 µM | 0.67 µM |
| CCN(CC)CCn1c(CCCCCC#N)nc2cc(/C=C/C(=O)NO)ccc21 [Compound 110, 3-[2-(5-Cyano-pentyl)-1-(2-diethylamino-ethyl)-1H-benzoimidazol-5-yl]-N-hydroxy-acrylamide] | 0.044 µM | 1.74 µM |
| CCCCCCc1nc2cc(/C=C/C(=O)NO)ccc2n1C1CCCN(CCO)C1 (stereo not shown) [Compound 90, 3-{2-Hexyl-1-[1-(2-hydroxy-ethyl)-piperidin-3-yl]-1H-benzoimidazol-5-yl}-N-hydroxy-acrylamide] | 0.51 µM | 8.1 µM |
| CN(C)CCn1c(CC(F)(F)F)nc2cc(/C=C/C(=O)NO)ccc21 [Compound 66, 3-[1-(2-Dimethylamino-ethyl)-2-(2,2,2-trifluoro-ethyl)-1H-benzoimidazol-5-yl]-N-hydroxy-acrylamide] | 0.34 µM | 8.8 µM |
| CCCCN(CCCC)CCn1c(CCC)nc2cc(/C=C/C(=O)NO)ccc21 [Compound 119, (E)-3-(1-(2-(dibutylamino)ethyl)-2-propyl-1H-benzo[d]imidazol-5-yl)-N-hydroxyacrylamide] | 0.18 µM | 0.77 µM |
| CCCCCc1nc2cc(/C=C/C(=O)NO)ccc2n1C1CCCN(C)C1 (stereo not shown) [Compound 86, N-Hydroxy-3-[1-(1-methyl-piperidin-3-yl)-2-pentyl-1H-benzoimidazol-5-yl]-acrylamide] | 0.16 µM | 2.08 µM |
| CN(C)CC(C)(C)Cn1c(C2CC3C=CC2C3)nc2cc(/C=C/C(=O)NO)ccc21 (stereo not shown) [Compound 25, 3-[2-Bicyclo[2.2.1]hept-5-en-2-yl-1-(3-dimethylamino-2,2-dimethyl-propyl)-1H-benzoimidazol-5-yl]-N-hydroxy-acrylamide] | 0.23 µM | 2.38 µM |
| CCCCCCCC(Cc1nc2cc(/C=C/C(=O)NO)ccc2n1CCN)OC (stereo not shown) [Compound 56, 3-[1-(2-Amino-ethyl)-2-(2-methoxy-nonyl)-1H-benzoimidazol-5-yl]-N-hydroxy-acrylamide] | 0.029 µM | 0.9 µM |
| CN(CCn1cnc2cc(/C=C/C(=O)NO)ccc21)CCC(C)(C)C [Compound 122, 3-(1-{2-[(3,3-Dimethyl-butyl)-methyl-amino]-ethyl}-1H-benzoimidazol-5-yl)-N-hydroxy-acrylamide] | 0.037 µM | 0.15 µM |
| CCCCCCCCc1nc2cc(/C=C/C(=O)NO)ccc2n1CCNC [Compound 76, N-Hydroxy-3-[1-(2-methylamino-ethyl)-2-octyl-1H-benzoimidazol-5-yl]-acrylamide] | 0.018 µM | 0.29 µM |
| CCCN(CCn1cnc2cc(/C=C/C(=O)NO)ccc21)CCC(C)(C)C [Compound 128, 3-(1-{2-[(3,3-Dimethyl-butyl)-propyl-amino]-ethyl}-1H-benzoimidazol-5-yl)-N-hydroxy-acrylamide] | 0.031 µM | 0.14 µM |
| CCCCCN(CCn1cnc2cc(/C=C/C(=O)NO)ccc21)C(C)C [Compound 109, N-Hydroxy-3-{1-[2-(isopropyl-pentyl-amino)-ethyl]-1H-benzoimidazol-5-yl}-acrylamide] | 0.048 µM | 0.49 µM |
| C=CCCCN1CCCC(n2cnc3cc(/C=C/C(=O)NO)ccc32)C1 (stereo not shown) [Compound 103, (E)-N-hydroxy-3-(1-(1-(pent-4-enyl)piperidin-3-yl)-1H-benzo[d]imidazol-5-yl)acrylamide] | 0.1 µM | 0.48 µM |
| CCc1nc2cc(/C=C/C(=O)NO)ccc2n1CCNCCC(C)(C)C [Compound 135, 3-{1-[2-(3,3-Dimethyl-butylamino)-ethyl]-2-ethyl-1H-benzoimidazol-5-yl}-N-hydroxy-acrylamide] | 0.074 µM | 0.26 µM |
| CCCCCCCCc1nc2cc(/C=C/C(=O)NO)ccc2n1CCN [Compound 77, 3-[1-(2-Amino-ethyl)-2-octyl-1H-benzoimidazol-5-yl]-N-hydroxy-acrylamide] | 0.026 µM | 0.67 µM |
| CC(C)(C)CCN1CCC(n2cnc3cc(/C=C/C(=O)NO)ccc32)CC1 [Compound 104, (E)-3-(1-(1-(3,3-dimethylbutyl)piperidin-4-yl)-1H-benzo[d]imidazol-5-yl)-N-hydroxyacrylamide] | 0.41 µM | 1.99 µM |
